Laboratory results as given in patent publication US9113629B2, “4-amino-6-(4-substituted-phenyl)-picolinates and 6-amino-2-(4-substituted-phenyl)-pyrimidine-4-carboxylates and their use as herbicides” (DOW AGROSCIENCES LLC, priority 2013, dated 2015).

system: Key Broadleaf Weed and Crop Species; assay: Post-emergent Test II herbicidal activity (Table 5); assay type: in vivo; conditions: post-emergence, 336 h; ABUTH: velvetleaf (Abutilon theophrasti); 70 g ai/ha; post-emergent; 14 days after application; read-out: Visual Growth Reduction (%) 14 Days After Application ABUTH
Procedure, shortened: (§1)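 Compounds, dissolved in 97:3 acetone/DMSO and diluted into an aqueous carrier containing crop oil concentrate and Triton X-155, are applied over the top of young plants at 187 L/ha. Injury is scored visually at 14 d, 0% meaning no effect and 100% complete kill.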

Structure (SMILES)	pest or weed control at 70 g/ha [%]
C=Cc1c(N)nc(-c2ccc(C(F)(F)F)c(F)c2)nc1C(=O)OC [Compound 137, Methyl 6-amino-2-(3-fluoro-4-(trifluoromethyl)phenyl)-5-vinylpyrimidine-4-carboxylate]	75 to 84

same assay, conditions: post-emergence, 336 h; ABUTH: velvetleaf (Abutilon theophrasti); 140 g ai/ha; post-emergent; 14 days after application; read-out: Visual Growth Reduction (%) 14 Days After Application ABUTH

Structure (SMILES)	pest or weed control at 140 g/ha [%]
C=Cc1c(N)nc(-c2ccc(C(F)(F)F)c(F)c2)nc1C(=O)OC [Compound 137, Methyl 6-amino-2-(3-fluoro-4-(trifluoromethyl)phenyl)-5-vinylpyrimidine-4-carboxylate]	85 to 94

same assay, conditions: post-emergence, 336 h; AMARE: redroot pigweed (Amaranthus retroflexus); 70 g ai/ha; post-emergent; 14 days after application; read-out: Visual Growth Reduction (%) 14 Days After Application AMARE

Structure (SMILES)	pest or weed control at 70 g/ha [%]
C=Cc1c(N)nc(-c2ccc(C(F)(F)F)c(F)c2)nc1C(=O)OC [Compound 137, Methyl 6-amino-2-(3-fluoro-4-(trifluoromethyl)phenyl)-5-vinylpyrimidine-4-carboxylate]	0 to 29

same assay, conditions: post-emergence, 336 h; AMARE: redroot pigweed (Amaranthus retroflexus); 140 g ai/ha; post-emergent; 14 days after application; read-out: Visual Growth Reduction (%) 14 Days After Application AMARE

Structure (SMILES)	pest or weed control at 140 g/ha [%]
C=Cc1c(N)nc(-c2ccc(C(F)(F)F)c(F)c2)nc1C(=O)OC [Compound 137, Methyl 6-amino-2-(3-fluoro-4-(trifluoromethyl)phenyl)-5-vinylpyrimidine-4-carboxylate]	0 to 29

same assay, conditions: post-emergence, 336 h; BRSNN: oilseed-rape, canola (Brassica napus); 70 g ai/ha; post-emergent; 14 days after application; read-out: Visual Growth Reduction (%) 14 Days After Application BRSNN

Structure (SMILES)	pest or weed control at 70 g/ha [%]
C=Cc1c(N)nc(-c2ccc(C(F)(F)F)c(F)c2)nc1C(=O)OC [Compound 137, Methyl 6-amino-2-(3-fluoro-4-(trifluoromethyl)phenyl)-5-vinylpyrimidine-4-carboxylate]	0 to 29

same assay, conditions: post-emergence, 336 h; BRSNN: oilseed-rape, canola (Brassica napus); 140 g ai/ha; post-emergent; 14 days after application; read-out: Visual Growth Reduction (%) 14 Days After Application BRSNN

Structure (SMILES)	pest or weed control at 140 g/ha [%]
C=Cc1c(N)nc(-c2ccc(C(F)(F)F)c(F)c2)nc1C(=O)OC [Compound 137, Methyl 6-amino-2-(3-fluoro-4-(trifluoromethyl)phenyl)-5-vinylpyrimidine-4-carboxylate]	0 to 29

same assay, conditions: post-emergence, 336 h; CHEAL: lambsquarters (Chenopodium album); 70 g ai/ha; post-emergent; 14 days after application; read-out: Visual Growth Reduction (%) 14 Days After Application CHEAL

Structure (SMILES)	pest or weed control at 70 g/ha [%]
C=Cc1c(N)nc(-c2ccc(C(F)(F)F)c(F)c2)nc1C(=O)OC [Compound 137, Methyl 6-amino-2-(3-fluoro-4-(trifluoromethyl)phenyl)-5-vinylpyrimidine-4-carboxylate]	0 to 29

same assay, conditions: post-emergence, 336 h; CHEAL: lambsquarters (Chenopodium album); 140 g ai/ha; post-emergent; 14 days after application; read-out: Visual Growth Reduction (%) 14 Days After Application CHEAL

Structure (SMILES)	pest or weed control at 140 g/ha [%]
C=Cc1c(N)nc(-c2ccc(C(F)(F)F)c(F)c2)nc1C(=O)OC [Compound 137, Methyl 6-amino-2-(3-fluoro-4-(trifluoromethyl)phenyl)-5-vinylpyrimidine-4-carboxylate]	45 to 59

same assay, conditions: post-emergence, 336 h; EPHHL: wild poinsettia (Euphorbia heterophylla); 70 g ai/ha; post-emergent; 14 days after application; read-out: Visual Growth Reduction (%) 14 Days After Application EPHHL

Structure (SMILES)	pest or weed control at 70 g/ha [%]
C=Cc1c(N)nc(-c2ccc(C(F)(F)F)c(F)c2)nc1C(=O)OC [Compound 137, Methyl 6-amino-2-(3-fluoro-4-(trifluoromethyl)phenyl)-5-vinylpyrimidine-4-carboxylate]	0 to 29

same assay, conditions: post-emergence, 336 h; EPHHL: wild poinsettia (Euphorbia heterophylla); 140 g ai/ha; post-emergent; 14 days after application; read-out: Visual Growth Reduction (%) 14 Days After Application EPHHL

Structure (SMILES)	pest or weed control at 140 g/ha [%]
C=Cc1c(N)nc(-c2ccc(C(F)(F)F)c(F)c2)nc1C(=O)OC [Compound 137, Methyl 6-amino-2-(3-fluoro-4-(trifluoromethyl)phenyl)-5-vinylpyrimidine-4-carboxylate]	60 to 74

same assay, conditions: post-emergence, 336 h; HELAN: sunflower (Helianthus annuus); 70 g ai/ha; post-emergent; 14 days after application; read-out: Visual Growth Reduction (%) 14 Days After Application HELAN

Structure (SMILES)	pest or weed control at 70 g/ha [%]
C=Cc1c(N)nc(-c2ccc(C(F)(F)F)c(F)c2)nc1C(=O)OC [Compound 137, Methyl 6-amino-2-(3-fluoro-4-(trifluoromethyl)phenyl)-5-vinylpyrimidine-4-carboxylate]	45 to 59

same assay, conditions: post-emergence, 336 h; HELAN: sunflower (Helianthus annuus); 140 g ai/ha; post-emergent; 14 days after application; read-out: Visual Growth Reduction (%) 14 Days After Application HELAN

Structure (SMILES)	pest or weed control at 140 g/ha [%]
C=Cc1c(N)nc(-c2ccc(C(F)(F)F)c(F)c2)nc1C(=O)OC [Compound 137, Methyl 6-amino-2-(3-fluoro-4-(trifluoromethyl)phenyl)-5-vinylpyrimidine-4-carboxylate]	60 to 74

same assay, conditions: post-emergence, 336 h; VIOTR: wild pansy (Viola tricolor); 70 g ai/ha; post-emergent; 14 days after application; read-out: Visual Growth Reduction (%) 14 Days After Application VIOTR

Structure (SMILES)	pest or weed control at 70 g/ha [%]
C=Cc1c(N)nc(-c2ccc(C(F)(F)F)c(F)c2)nc1C(=O)OC [Compound 137, Methyl 6-amino-2-(3-fluoro-4-(trifluoromethyl)phenyl)-5-vinylpyrimidine-4-carboxylate]	0 to 29

same assay, conditions: post-emergence, 336 h; VIOTR: wild pansy (Viola tricolor); 140 g ai/ha; post-emergent; 14 days after application; read-out: Visual Growth Reduction (%) 14 Days After Application VIOTR

Structure (SMILES)	pest or weed control at 140 g/ha [%]
C=Cc1c(N)nc(-c2ccc(C(F)(F)F)c(F)c2)nc1C(=O)OC [Compound 137, Methyl 6-amino-2-(3-fluoro-4-(trifluoromethyl)phenyl)-5-vinylpyrimidine-4-carboxylate]	0 to 29

system: Key Grass and Sedge Weeds as well as Grass Crops; assay: Post-emergent Test II herbicidal activity (Table 6); assay type: in vivo; conditions: Triticum aestivum, post-emergence, 336 h, TRZSS (wheat), application rate 70 g ai/ha, read-out: Visual Growth Reduction (%) 14 Days After Application, TRZSS
Procedure, shortened: as §1

Structure (SMILES)	pest or weed control at 70 g/ha [%]
C=Cc1c(N)nc(-c2ccc(C(F)(F)F)c(F)c2)nc1C(=O)OC [Compound 137, Methyl 6-amino-2-(3-fluoro-4-(trifluoromethyl)phenyl)-5-vinylpyrimidine-4-carboxylate]	0 to 29
